# Data: patent EP0771196B1, “EXCITATORY AMINO ACID RECEPTOR ANTAGONISTS” (ELI LILLY AND COMPANY, priority 1994, dated 1996)
# Marks after values point to notes of the source that are not given here.
# Test system: metabotropic glutamate receptors
# Assay: Displacement of 1S,3R-ACPD-sensitive [3H]glutamate binding to rat brain cell membranes
# Details: crude membranes of rat forebrain; 10 µM compound
# Procedure: The binding of [^3H]glutamate was conducted with crude membranes of rat forebrain as described by Schoepp and True. Schoepp and True, Neuroscience Lett., 145, 100-104 (1992) and True and Schoepp, Society for Neuroscience Abstracts, 19, 470 (1993). IC50 values for the inhibition of [^3H]glutamate binding, or the percent displacement of [^3H]glutamate binding at a 10 µM concentration, of the formula I compound, is shown in Table II.
row,SMILES,ACPD-Sensitive [^3H]Glutamate Binding % Displacement at 10 µM
1,"NC(Cc1ccccc1)(C(=O)O)C1CC1C(=O)O (stereo not drawn) [Example 1, 2SR- and 2RS-2-amino-2-(1SR,2SR-2-carboxycyclopropan-1-yl)-3-phenylpropanoic acid]",(61%)
2,"NC(Cc1ccc(C(=O)O)cc1)(C(=O)O)C1CC1C(=O)O (stereo not drawn) [Example 42, 2SR- and 2RS-2-amino-2-(1SR,2SR-2-carboxycyclopropan-1-yl)-3-((4-carboxy)phenyl)propanoic acid]",(39%)
3,"NC(C(=O)O)(C1Cc2ccccc2C1)C1CC1C(=O)O (stereo not drawn) [Example 43, 2SR- and 2RS-2-amino-2-(1SR,2SR-2-carboxycyclopropan-1-yl)-2-(indan-2-yl)ethanoic acid]",(32%)
4,"NC(CCC1CCNCC1)(C(=O)O)C1CC1C(=O)O (stereo not drawn) [Example 45, 2SR- and 2RS-2-amino-2-(1SR,2SR-2-carboxycyclopropan-1-yl)-2-(piperidin-4-yl)butanoic acid]",(42%)
5,"N[C@@](CC(c1ccccc1)c1ccccc1)(C(=O)O)[C@@H]1C[C@H]1C(=O)O [Example 65, 2R 2-amino-2-(1R,2R-2-carboxycyclopropan-1-yl)-4,4-diphenylbutanoic acid]",(45%)
6,"N[C@](CC(c1ccccc1)c1ccccc1)(C(=O)O)[C@@H]1C[C@H]1C(=O)O [Example 66, 2S-2-amino-2-(1R,2R-2-carboxycyclopropan-1-yl)-4,4-diphenylbutanoic acid]",(36%)

# Same assay, conditions: crude membranes of rat forebrain; 10 µM compound; 10 µM
row,SMILES,ACPD-Sensitive [^3H]Glutamate Binding % Displacement at 10 µM
1,"Cc1cccc(CCC(N)(C(=O)O)C2CC2C(=O)O)c1 [Example 67, 2R-2-amino-2-(1S,2S-2-carboxycyclopropan-1-yl)-4-(3-methylphenyl)butanoic acid]",(22%)^b

# Same assay, conditions: crude membranes of rat forebrain; inhibition of [3H]glutamate binding
row,SMILES,IC50
1,"CC(N)(C(=O)O)C1CC1C(=O)O (stereo not drawn) [Example 8, 2SR- and 2RS-2-amino-2-(1SR,2SR-2-carboxycyclopropan-1-yl)propanoic acid, reference compound]",6200 nM
2,"CCCCC(N)(C(=O)O)C1CC1C(=O)O (stereo not drawn) [Example 11, 2SR- and 2RS-2-amino-2-(1SR,2SR-2-carboxycyclopropan-1-yl)hexanoic acid]",1400 nM
3,"CCCCCC(N)(C(=O)O)C1CC1C(=O)O (stereo not drawn) [Example 12, 2SR- and 2RS-2-amino-2-(1SR,2SR-2-carboxycyclopropan-1-yl)heptanoic acid]",1800 nM
4,"COc1ccc(CCC(N)(C(=O)O)C2CC2C(=O)O)cc1OC (stereo not drawn) [Example 33, 2SR- and 2RS-2-amino-2-(1SR,2SR-2-carboxycyclopropan-1-yl)-4-(3,4-dimethoxyphenyl)butanoic acid]",460 nM
5,NC(CCC12CC3CC(CC(C3)C1)C2)(C(=O)O)C1CC1C(=O)O (stereo not drawn) [Example 36],200 nM
6,"NC(CC1CCC1)(C(=O)O)C1CC1C(=O)O (stereo not drawn) [Example 40, 2SR- and 2RS-2-amino-2-(1SR,2SR-2-carboxycyclopropan-1-yl)-3-cyclobutylpropanoic acid]",29500 nM
7,"NC(CC1CCCC1)(C(=O)O)C1CC1C(=O)O (stereo not drawn) [Example 41, 2SR- and 2RS-2-amino-2-(1SR,2SR-2-carboxycyclopropan-1-yl)-3-cyclopentylpropanoic acid]",1400 nM
8,"NC(CCC1CCCCC1)(C(=O)O)C1CC1C(=O)O (stereo not drawn) [Example 44, 2SR- and 2RS-2-amino-2-(1SR,2SR-2-carboxycyclopropan-1-yl)-4-(cyclohexyl)butanoic acid]",380 nM
9,"NC(CC(c1ccc(Cl)cc1)c1ccc(Cl)cc1)(C(=O)O)C1CC1C(=O)O (stereo not drawn) [Example 46, 2SR- and 2RS-2-amino-2-(1SR,2SR-2-carboxycyclopropan-1-yl)-4,4-di(4,4'-dichloro)phenylbutanoic acid]",77 nM
10,"NC(CCc1ccc(Cl)cc1Cl)(C(=O)O)C1CC1C(=O)O (stereo not drawn) [Example 47, 2SR- and 2RS-2-amino-2-(1SR,2SR-2-carboxycyclopropan-1-yl)-4-(2,4-dichlorophenyl)butanoic acid]",220 nM
11,"NC(CCc1ccc(Cl)c(Cl)c1)(C(=O)O)C1CC1C(=O)O (stereo not drawn) [Example 48, 2SR- and 2RS-2-amino-2-(1SR,2SR-2-carboxycyclopropan-1-yl)-4-(3,4-dichlorophenyl)butanoic acid]",38 nM

# Now from value to compound:
row,IC50,SMILES
1,9 nM,"NC(Cc1cccc2c1Oc1ccccc1C2)(C(=O)O)[C@H]1C[C@@H]1C(=O)O (mixture of isomers) [Example 35, 2SR- and 2RS-2-amino-2-(1SR,2SR-2-carboxycyclopropan-1-yl)-3-(dibenzopyran-4-yl)propanoic acid]"
2,320 nM,"NC(CCc1ccccc1)(C(=O)O)C1CC1C(=O)O (stereo not drawn) [Example 2, 2SR- and 2RS-2-amino-2-(1SR,2SR-2-carboxycyclopropan-1-yl)-4-phenylbutanoic acid]"
3,630 nM,"NC(CCCc1ccccc1)(C(=O)O)C1CC1C(=O)O (stereo not drawn) [Example 3, 2SR- and 2RS-2-amino-2-(1SR,2SR-2-carboxycyclopropan-1-yl)-5-phenylpentanoic acid]"
4,2300 nM,"NC(CCCCc1ccccc1)(C(=O)O)C1CC1C(=O)O (stereo not drawn) [Example 4, 2SR- and 2RS-2-amino-2-(1SR,2SR-2-carboxycyclopropan-1-yl)-6-phenylhexanoic acid]"
5,76 nM,"NC(CC(c1ccccc1)c1ccccc1)(C(=O)O)C1CC1C(=O)O (stereo not drawn) [Example 5, 2SR- and 2RS-2-amino-2-(1SR,2SR-2-carboxycyclopropan-1-yl)-4,4-diphenylbutanoic acid]"
6,7100 nM,"NC(CCC(c1ccccc1)c1ccccc1)(C(=O)O)C1CC1C(=O)O (stereo not drawn) [Example 6, 2SR- and 2RS-2-amino-2-(1SR,2SR-2-carboxycyclopropan-1-yl)-5,5-diphenylpentanoic acid]"
7,7000 nM,"NC(CCCC(c1ccccc1)c1ccccc1)(C(=O)O)C1CC1C(=O)O (stereo not drawn) [Example 7, 2SR- and 2RS-2-amino-2-(1SR,2SR-2-carboxycyclopropan-1-yl)-6,6-diphenylhexanoic acid]"
8,2200 nM,"CCC(N)(C(=O)O)C1CC1C(=O)O (stereo not drawn) [Example 9, 2SR- and 2RS-2-amino-2-(1SR,2SR-2-carboxycyclopropan-1-yl)butanoic acid]"
9,2100 nM,"CCCC(N)(C(=O)O)C1CC1C(=O)O (stereo not drawn) [Example 10, 2SR- and 2RS-2-amino-2-(1SR,2SR-2-carboxycyclopropan-1-yl)pentanoic acid]"
10,410 nM,"NC(CCc1ccc(Cl)cc1)(C(=O)O)C1CC1C(=O)O (stereo not drawn) [Example 25, 2SR- and 2RS-2-amino-2-(1SR, 2SR-2-carboxycyclopropan-1-yl)-4-(4-chlorophenyl)butanoic acid]"
11,170 nM,"COc1ccccc1CCC(N)(C(=O)O)C1CC1C(=O)O (stereo not drawn) [Example 26, 2SR- and 2RS-2-amino-2-(1SR,2SR-2-carboxycyclopropan-1-yl) -4-(2-methoxyphenyl)butanoic acid]"
12,42 nM,"COc1cccc(CCC(N)(C(=O)O)C2CC2C(=O)O)c1 (stereo not drawn) [Example 27, 2SR- and 2RS-2-amino-2-(1SR,2SR-2-carboxycyclopropan-1-yl) -4-(3-methoxyphenyl)butanoic acid]"
13,1400 nM,"COc1ccc(CCC(N)(C(=O)O)C2CC2C(=O)O)cc1 (stereo not drawn) [Example 28, 2SR- and 2RS-2-amino-2-(1SR,2SR-2-carboxycyclopropan-1-yl)-4-(4-methoxyphenyl)butanoic acid]"
14,100 nM,"NC(CCc1ccccc1O)(C(=O)O)C1CC1C(=O)O (stereo not drawn) [Example 29, 2SR- and 2RS-2-amino-2-(1SR,2SR-2-carboxycyclopropan-1-yl)-4-(2-hydroxyphenyl)butanoic acid]"
15,80 nM,"NC(CCc1cccc(O)c1)(C(=O)O)C1CC1C(=O)O (stereo not drawn) [Example 30, 2SR- and 2RS-2-amino-2-(1SR,2SR-2-carboxycyclopropan-1-yl)-4-(3-hydroxyphenyl)butanoic acid]"
16,300 nM,"NC(CCc1ccc(O)cc1)(C(=O)O)C1CC1C(=O)O (stereo not drawn) [Example 31, 2SR- and 2RS-2-amino-2-(1SR,2SR-2-carboxycyclopropan-1-yl)-4-(4-hydroxyphenyl)butanoic acid]"
17,170 nM,"COc1ccc(OC)c(CCC(N)(C(=O)O)C2CC2C(=O)O)c1 (stereo not drawn) [Example 32, 2SR- and 2RS-2-amino-2-(1SR,2SR-2-carboxycyclopropan-1-yl)-4-(2,5-dimethoxyphenyl)butanoic acid]"
18,120 nM,"CC(CC(N)(C(=O)O)C1CC1C(=O)O)c1ccccc1 (stereo not drawn) [Example 34, 2SR,5SR-, 2SR,5RS-, 2RS,5SR- and 2RS,5RS-2-amino-2-(1SR,2SR-2-carboxycyclopropan-1-yl)-4-methyl-4-phenylbutanoic acid]"
19,64 nM,"NC(CCc1cccc(C(F)(F)F)c1)(C(=O)O)C1CC1C(=O)O (stereo not drawn) [Example 37, 2SR- and 2RS-2-amino-2-(1SR,2SR-2-carboxycyclopropan-1-yl)-4-(3-(trifluoromethyl)phenyl)butanoic acid]"
20,55 nM,"NC(CCc1cccc(Br)c1)(C(=O)O)C1CC1C(=O)O (stereo not drawn) [Example 38, 2SR- and 2RS-2-amino-2-(1SR,2SR-2-carboxycyclopropan-1-yl)-4-(3-bromophenyl)butanoic acid]"
21,11200 nM,"NC(COc1ccccc1)(C(=O)O)C1CC1C(=O)O (stereo not drawn) [Example 39, 2SR- and 2RS-2-amino-2-(1SR,2SR-2-carboxycyclopropan-1-yl)-3-phenoxypropanoic acid]"
22,2000 nM,"N[C@@](CC(c1ccccc1)c1ccccc1)(C(=O)O)[C@H]1C[C@@H]1C(=O)O [Example 63, 2R 2-amino-2-(1S,2S-2-carboxycyclopropan-1-yl)-4,4-diphenylbutanoic acid]"
23,35 ± 5 nM,"N[C@](CC(c1ccccc1)c1ccccc1)(C(=O)O)[C@H]1C[C@@H]1C(=O)O [Example 64, 2S-2-amino-2-(1S,2S-2-carboxycyclopropan-1-yl)-4,4-diphenylbutanoic acid]"
24,12 ± 3 nM,"Cc1cccc(CCC(N)(C(=O)O)C2CC2C(=O)O)c1 [Example 68, 2S-2-amino-2-(1S,2S-2-carboxycyclopropan-1-yl)-4-(3-methylphenyl)butanoic acid]"
